Assay results from article PMC4474874, “Effect of JAK Inhibitors on Release of CXCL9, CXCL10 and CXCL11 from Human Airway Epithelial Cells” (PLoS ONE, 2015).
Like-named read-outs stand apart in the source and are kept apart here.

Columns and labels:
BEAS-2B cells = experiment: Release of CXCL9, CXCL10 and CXCL11 from BEAS-2B cells (ELISA), inhibitors added 1h before stimulus; type: cell-based, human; conditions: for IC50: BEAS-2B, pre-treated 1h
Method: BEAS-2B cells (catalogue number CRL-9609) were purchased directly from American Type Culture Collection (Rockville, MD). Keratinocyte serum-free medium (K-SFM), bovine pituitary extract (BPE), and recombinant human epidermal growth factor (EGF) were purchased from Invitrogen (Paisley, UK). BEAS-2B cells were cultured in K-SFM containing 50 μg/ml BPE and 5 ng/ml EGF at 37°C in a humidified atmosphere comprising 5% (v/v) CO2 in air. Cells were cultured as monolayers in growth factor-free media for 24 h prior to stimulation. Human primary airway epithelial cells were cultured as monolayers from bronchial brushings from both male and female subjects (Table 1) and cultured in LHC-9 media (Invitrogen, Paisley, UK) in collagen (1% w/v) coated flasks. Samples were obtained from non-smokers, smokers and patients with COPD. […] The subjects were matched for age and smokers and COPD patients for smoking history (Table 1). All subjects gave informed written consent and the study was approved by the NRES London-Chelsea Research Ethics committee, study number 09/H0801/85.
Cell-free supernatants were removed 20h post-stimulation and assayed for CXCL9, CXCL10 and CXCL11 using Duoset ELISA kits (R & D Systems Europe, Abingdon, UK) according to the manufacturer’s instructions. The detection limits of these assays are 62pg/ml, 31pg/ml, and 7.8 pg/ml respectively.
Data are presented as mean ± SEM of ‘n’ independent determinations. Concentration-response curves were analysed by least-squares, non-linear iterative regression with the ‘Graphpad Prism’ curve fitting program (GraphPad software, San Diego, USA) and IC50 values were subsequently interpolated from curves of best-fit. Statistical differences were determined using the Kruskal–Wallis test followed by Dunn's multiple comparison test or a Wilcoxon signed rank test as appropriate. Values of P<0.05 were considered significant.
Media was harvested and the concentrations of CXCL9 (panels a and d), CXCL10 (panels b and e) and CXCL11 (panels c and f) were measured by ELISA. Data are presented as mean±SEM, n = 7–8.

[1] = tested on: BEAS-2B and human primary airway epithelial cells; experiment: Cell viability, MTT assay; type: cell-based; conditions: for cell viability compared to untreated cells (MTT): at 10^-6M and at all concentrations below this
Method: Cell viability was determined colorimetrically by measuring the reduction of 3-[4,5-dimethylthiazol-2-yl]-2,5-diphenyltetrazolium bromide, MTT, to formazan by mitochondrial dehydrogenases, as described previously.
In order to determine whether any of the inhibitory effects of the JAK inhibitors could be attributed to cell death, MTT assays were performed at the end of every experiment. […] In order to address this issue, the levels of IL-6 released from cells stimulated with IFNγ + TNFα were measured.

STAT-1 [2] = experiment: STAT-1 phosphorylation in BEAS-2B cells (western blot); type: cell-based, human; conditions: for IC50: n = 4
Method: (§1) Enhanced chemiluminescence (ECL) reagent and Hybond-ECL nitrocellulose were obtained from GE Healthcare (Little Chalfont, UK). Bis-Tris SDS-PAGE (4–12%) gels and buffers were purchased from Invitrogen Ltd (Paisley, Scotland, UK). Antibodies against phosphorylated and total STAT-1 were purchased from New England Biolabs (Hitchin, UK). Epithelial cells were treated as indicated in six-well plates and lysed in 10 mM Tris-HCl buffer (pH 7.5) containing 150 mM NaCl, 2 mM EDTA, 1 mM sodium orthovanadate, 1% (v/v) Triton X-100, 1 mM phenylmethylsulfonyl fluoride, 10 μg/ml leupeptin, and 10 μg/ml aprotinin) for 30 min on ice. The lysates were then centrifuged at 12,000g for 15 min and protein concentration determined using the BCA protein assay (BioRad, Hemel Hempstead, UK). The proteins within the lysates (20 μg) were resolved with 4–12% Bis-Tris gels and transferred onto nitrocellulose membranes. The membranes were then blocked with 5% (w/v) non-fat milk in TBS containing 0.1% (v/v) Tween 20 for 1 h at room temperature and then incubated with antibodies specific for pSTAT-1 overnight at 4°C. The primary antibody was detected with peroxidase-conjugated secondary antibodies and labelled proteins were detected by ECL.
Having ascertained that JAK inhibitors could suppress the glucocorticosteroid-insensitive release of CXCL9, CXCL10 and CXCL11 from airway epithelial cells, it was important to confirm that this was via inhibition of the JAK-STAT pathway and not an off-target effect of these agents. […] BEAS-2B cells were stimulated with either IFNγ or IFNγ in combination with TNFα and the phosphorylation of STAT-1 was measured by western blotting as reported previously (Fig 4). […] There was no activation of STAT-5A or STAT-5B in this system (data not shown).
Cells were harvested and western blots performed for phosphorylated STAT-1 and total STAT-1 and quantified by densitometry. Data are representative of n = 4 independent experiments (panels a and c) and presented as mean±SEM, n = 4 (panels b and d).

STAT-1 [3] = experiment: STAT-1 phosphorylation in human primary airway epithelial cells (western blot); type: cell-based; conditions: 1μM inhibitor 1h, IFNγ and IFNγ + TNFα 10 min
Method: as §1
Cells were harvested and western blots performed for phosphorylated STAT-1 and total STAT-1 and quantified by densitometry. […]

STAT-3 = STAT-3 DNA binding in BEAS-2B cells (TransAM); type: cell-based, human; conditions: IFNγ + TNFα, inhibitor 10^-6M
Method: STAT phosphorylation, nuclear translocation and DNA binding was determined using TransAM assays (Actif Motif, Rixensart, Belgium). Cells were treated with JAK inhibitors for 30 min prior to stimulation for 1h. Nuclear extracts were prepared using the Actif Motif assay reagents. Briefly, the nuclear extracts (10 μg) were incubated in DNA coated plates for 1h. After washing, antibodies supplied with the TransAM kit that were specific for the active forms of STAT1, STAT3, STAT5A and STAT5B were added to the wells and incubated for a further hour. The plates were washed and a secondary HRP-labelled anti-goat Ig antibody was added and the plates incubated for an hour. After washing, the assay was developed using the TMB substrate provided and the reaction stopped using 2N sulphuric acid. The plates were read at 450nm with a reference filter of 610nm. Data were then normalised to non-stimulated cells and calculated as fold change from baseline.
After 1 h, nuclear extracts of the cells were prepared and TransAM assays for STAT-1 (panel a) and STAT-3 (panel b) were performed. Data are presented as fold change from baseline ± SEM; n = 4.

With `C[C@@H]1CCN(C(=O)N2CCCC2)C[C@@H]1N(C)c1ncnc2[nH]ccc12` [PF956980] the IC50 (BEAS-2B cells; IFNγ (10ng/ml) 20h, read-out: IC50, release of CXCL9) was 400 ± 100 nM, the IC50 (BEAS-2B cells; IFNγ (10ng/ml) 20h, read-out: IC50, release of CXCL10) was 600 ± 300 nM and the IC50 (BEAS-2B cells; IFNγ (10ng/ml) 20h, read-out: IC50, release of CXCL11) was 500 ± 100 nM. For the same compound, the IC50 (BEAS-2B cells; IFNγ+TNFα (10ng/ml) 20h, read-out: IC50, release of CXCL9) was 600 ± 100 nM, the IC50 (BEAS-2B cells; IFNγ+TNFα (10ng/ml) 20h, read-out: IC50, release of CXCL10) was 2200 ± 300 nM and the “effect on IFNγ-stimulated release of CXCL9, CXCL10 and CXCL11” value (BEAS-2B cells; present study, IFNγ-stimulated) was “completely attenuated”. The “effect on cell viability (MTT)” value ([1]; any of the concentrations used in this study) was “no effect on cell viability”, the “cell viability compared to untreated cells (MTT)” value [1] was “no alterations in cell viability” and the IC50 (STAT-1 [2]; IFNγ + TNFα stimulation) was 840 ± 210 nM. For the same compound, the IC50 (STAT-1 [2]; IFNγ stimulation) was 940 ± 160 nM, the “effect on phosphorylation of STAT-1” value (STAT-1 [3]) was “suppressed” and the “effect on STAT-3 binding to DNA” value (STAT-3) was “suppressed”.
For `CCc1cc(O)ccc1-c1ccc2c(-c3nc4ccccc4[nH]3)n[nH]c2c1` [PF1367550, 4-(3-(1H-benzo[d]imidazol-2-yl)-1H-indazol-6-yl)-3-ethylphenol], the “fold more potent than PF956980, CXCR3 chemokine release” value (BEAS-2B cells; BEAS-2B cells, IFNγ and IFNγ+TNFα) was ~ 50 fold, the IC50 (BEAS-2B cells; Homo sapiens, IFNγ (10ng/ml) 20h, read-out: IC50, release of CXCL9) was 3.6 ± 1.4 nM and the IC50 (BEAS-2B cells; Homo sapiens, IFNγ (10ng/ml) 20h, read-out: IC50, release of CXCL10) was 6.1 ± 2 nM. It also gave an IC50 (BEAS-2B cells; Homo sapiens, IFNγ (10ng/ml) 20h, read-out: IC50, release of CXCL11) of 11.5 ± 2 nM, an IC50 (BEAS-2B cells; Homo sapiens, IFNγ+TNFα (10ng/ml) 20h, read-out: IC50, release of CXCL9) of 13.3 ± 2 nM and an IC50 (BEAS-2B cells; Homo sapiens, IFNγ+TNFα (10ng/ml) 20h, read-out: IC50, release of CXCL10) of 50.3 ± 8.5 nM. The IC50 (BEAS-2B cells; Homo sapiens, IFNγ+TNFα (10ng/ml) 20h, read-out: IC50, release of CXCL11) was 13.9 ± 2.6 nM, the “cell viability compared to untreated cells (MTT)” value [1] was “no alterations in cell viability” and the “effect on cell viability (MTT)” value ([1]; within 10^3 of the IC50 for this compound) was “no effect on cell viability”. For the same compound, the “fold more potent at suppressing STAT-1 phosphorylation compared with PF956980” value (STAT-1 [2]) was ~ 40 fold, the IC50 (STAT-1 [2]; Homo sapiens, IFNγ + TNFα stimulation) was 32 ± 13 nM and the IC50 (STAT-1 [2]; Homo sapiens, IFNγ stimulation) was 24 ± 6 nM. The “effect on phosphorylation of STAT-1” value (STAT-1 [3]) was “suppressed” and the “effect on STAT-3 binding to DNA” value (STAT-3) was “suppressed”.
